These results are taken from US20250017973A1, “Nutritional composition for cancer” (N.V. Nutricia, priority 2022, published 2025).

The assay concerns mammary adenocarcinoma cells. Briefly: Dark Agouti Mammary Adenocarcinoma (DAMA) tumour-bearing model: tumour growth and MTX efficacy. Type of assay: in vivo, rat. Particulars: MTX treated rats. How it is done:
Tumour-bearing studies were conducted in accordance with ethical guidelines approved by the University of Adelaide Animal Ethics committee in accordance with the National Health and Medical Research Committee's Code for the care and use of animals for scientific research. All experiments were performed with N=8 rats per group.
The rats were individually-housed in conventional, open top cages under 12 h light/dark cycles with ad libitum access to autoclaved food and sterile water. Sawdust bedding was provided in all cases with enrichment (crinkle paper for tumour-naïve model or toilet rolls for tumour-bearing model). All cages were randomly arranged across racks to prevent potential bias and dampen variation.
The Dark Agouti Mammary Adenocarcinoma (DAMA) model was used to assess the effect of a composition comprising hydrolysed whey proteins and MCTs on tumor growth. Following acclimatisation (1 week with AIN93G control diet), female DA rats weighing 150-170 g were given ad libitum access to the test or control diet (table 1) for two weeks prior to methotrexate (MTX) treatment (day-14). […] Tumours were measured daily using digital calipers to determine their volume (cm^3). Tumour burden was calculated as tumour length width*depth (volume) and expressed as relative to body weight (% BW, cm^3/g). […]

For the compound `CN(Cc1cnc2nc(N)nc(N)c2n1)c1ccc(C(=O)N[C@@H](CCC(=O)O)C(=O)O)cc1` [MTX, methotrexate], the “tumour burden at necropsy (FIG. 1B volume, FIG. 1C weight, relative to body weight)” value is on record as “significantly decreased to (near) zero”.
